Data: PMC3638264 (Journal of Medicinal Chemistry, 2013)
Residue numbers refer to the chain shown, from its start.

Tests used:
oCOX-1 = target: T1, oCOX-1 (Ovis aries, UniProt P05979); experiment: continuous colorimetric COX-1 assay; format: biochemical, ovine; details: for inhibitory activity on COX-1 at highest concentration tested: 100 μM inhibitor
T1 sequence (P05979 25-600): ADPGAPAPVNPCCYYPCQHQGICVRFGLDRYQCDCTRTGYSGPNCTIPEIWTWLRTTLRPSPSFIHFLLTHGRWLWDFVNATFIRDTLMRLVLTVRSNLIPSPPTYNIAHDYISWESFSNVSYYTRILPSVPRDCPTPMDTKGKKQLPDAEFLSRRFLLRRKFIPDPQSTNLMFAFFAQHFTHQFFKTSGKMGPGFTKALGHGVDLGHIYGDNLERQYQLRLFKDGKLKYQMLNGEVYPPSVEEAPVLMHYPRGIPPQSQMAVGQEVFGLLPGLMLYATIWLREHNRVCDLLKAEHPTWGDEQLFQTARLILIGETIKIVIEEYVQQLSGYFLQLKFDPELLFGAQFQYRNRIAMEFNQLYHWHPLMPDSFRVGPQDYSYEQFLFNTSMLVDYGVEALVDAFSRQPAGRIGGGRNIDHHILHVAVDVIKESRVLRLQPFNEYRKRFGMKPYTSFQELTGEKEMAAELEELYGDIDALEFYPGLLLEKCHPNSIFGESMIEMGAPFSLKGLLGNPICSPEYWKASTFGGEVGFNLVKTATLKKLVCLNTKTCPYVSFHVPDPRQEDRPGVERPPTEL

AKR1C2 = target: T2, AKR1C2 (Homo sapiens, UniProt P52895); experiment: AKR1C2 inhibition, NADP+ dependent oxidation of S-tetralol; details: for IC50 Ratio 1C2/1C3: selectivity for AKR1C3 over AKR1C2
T2 sequence (P52895 1-323): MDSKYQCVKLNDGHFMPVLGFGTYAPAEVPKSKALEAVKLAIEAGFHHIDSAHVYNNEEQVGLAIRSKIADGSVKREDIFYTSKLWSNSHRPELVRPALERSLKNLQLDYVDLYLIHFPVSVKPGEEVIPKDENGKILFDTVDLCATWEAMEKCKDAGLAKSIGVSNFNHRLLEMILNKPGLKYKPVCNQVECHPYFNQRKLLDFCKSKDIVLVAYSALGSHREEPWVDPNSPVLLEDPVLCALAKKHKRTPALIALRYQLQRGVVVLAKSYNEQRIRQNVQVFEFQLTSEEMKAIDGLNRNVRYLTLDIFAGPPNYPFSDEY

mouse COX-2 = target: T3, mouse COX-2 (Mus musculus, UniProt Q05769); experiment: discontinuous 14C-AA TLC-based COX assay, COX-2; details: for inhibition at 25 µM: read-out: wt mCOX 2 % inhib. @ 25 μM, 25 μM inhibitor, 5 μM AA; for wt mCOX 2 plateau of inhibition (P @ %): plateau at higher inhibitor concentrations
T3 sequence (Q05769 18-604): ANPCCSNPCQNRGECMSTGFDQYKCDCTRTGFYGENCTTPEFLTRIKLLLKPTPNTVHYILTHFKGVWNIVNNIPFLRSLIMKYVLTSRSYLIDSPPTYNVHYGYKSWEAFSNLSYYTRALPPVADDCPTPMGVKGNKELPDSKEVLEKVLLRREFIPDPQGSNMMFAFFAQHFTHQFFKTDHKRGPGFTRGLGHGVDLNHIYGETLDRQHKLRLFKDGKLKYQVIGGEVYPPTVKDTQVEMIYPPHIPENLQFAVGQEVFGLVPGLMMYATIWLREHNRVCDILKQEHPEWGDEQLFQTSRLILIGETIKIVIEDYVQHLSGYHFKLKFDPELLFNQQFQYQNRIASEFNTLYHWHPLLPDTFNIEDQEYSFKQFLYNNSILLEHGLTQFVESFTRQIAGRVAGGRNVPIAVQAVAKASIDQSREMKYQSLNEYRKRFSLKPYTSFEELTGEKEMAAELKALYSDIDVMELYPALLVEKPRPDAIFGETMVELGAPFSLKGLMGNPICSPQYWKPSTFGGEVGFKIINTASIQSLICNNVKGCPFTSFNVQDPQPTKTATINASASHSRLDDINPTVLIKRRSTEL

AKR1C3 = target: T4, AKR1C3 (Homo sapiens, UniProt P42330); experiment: AKR1C3 inhibition, NADP+ dependent oxidation of S-tetralol; details: for loss of inhibitory potency for AKR1C3: relative to indomethacin (1); for loss of AKR1C3 potency: relative to 44
T4 sequence (P42330 1-323): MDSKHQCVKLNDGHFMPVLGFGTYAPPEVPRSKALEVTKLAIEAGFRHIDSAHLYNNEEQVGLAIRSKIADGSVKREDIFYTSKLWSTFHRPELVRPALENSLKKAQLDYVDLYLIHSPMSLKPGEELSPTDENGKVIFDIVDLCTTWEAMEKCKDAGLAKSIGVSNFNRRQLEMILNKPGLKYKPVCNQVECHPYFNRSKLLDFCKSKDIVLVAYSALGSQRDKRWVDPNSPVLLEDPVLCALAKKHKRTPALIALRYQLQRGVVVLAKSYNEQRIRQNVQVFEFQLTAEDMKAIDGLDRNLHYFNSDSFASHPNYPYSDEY

AKR1C1 = target: T5, AKR1C1 (Homo sapiens, UniProt Q04828); format: biochemical; details: selectivity for AKR1C3 over AKR1C1
T5 sequence (Q04828 1-323): T2 sequence (P52895 1-323) with V38T, H47R, V54L, S87C, M151V, H170R, L172Q

AKR1C4 = target: T6, AKR1C4 (Homo sapiens, UniProt P17516); format: biochemical; details: selectivity for AKR1C3 over AKR1C4
T6 sequence (P17516 1-323): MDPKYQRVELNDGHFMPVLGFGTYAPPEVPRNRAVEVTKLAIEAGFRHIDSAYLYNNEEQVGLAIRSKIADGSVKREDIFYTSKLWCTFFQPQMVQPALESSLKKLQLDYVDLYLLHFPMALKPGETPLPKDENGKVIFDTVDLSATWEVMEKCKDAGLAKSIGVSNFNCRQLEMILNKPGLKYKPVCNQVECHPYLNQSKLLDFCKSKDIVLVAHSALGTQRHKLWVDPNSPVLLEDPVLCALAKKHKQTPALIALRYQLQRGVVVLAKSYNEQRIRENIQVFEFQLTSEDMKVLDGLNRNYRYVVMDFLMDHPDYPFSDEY

ovine COX-1 = target: T7, ovine COX-1 (Ovis aries, UniProt P05979); experiment: discontinuous 14C-AA TLC-based COX assay, COX-1; details: for inhibition at 25 µM: read-out: oCOX 1 % inhib. @ 25 μM, 25 μM inhibitor, 5 μM AA
T7 sequence (P05979 25-600): T1 sequence (P05979 25-600)

LNCaP-AKR1C3 cells = experiment: inhibition of testosterone formation in LNCaP-AKR1C3 cells; format: cell-based; details: 30 μM inhibitor, 0.1 μM Δ4-AD, 48 h

SMILES: COc1ccc2c(c1)c(CCC(=O)O)c(C)n2C(=O)c1ccc(Cl)cc1 [Compound 16, 3-(1-(4-Chlorobenzoyl)-5-methoxy-2-methyl-1H-indol-3-yl)propanoic Acid]
- IC50 (oCOX-1): 48800 nM

SMILES: CCC(=O)Cc1cn(C(=O)OC)c2ccc(OC)cc12 [Compound 43]
- IC50 Ratio 1C2/1C3 (AKR1C2): >4

SMILES: CCc1c(CCC(=O)O)n(C(=O)c2ccc(Cl)cc2)c2ccc(OC)cc12 [Compound 47, 3-(1-(4-Chlorobenzoyl)-3-ethyl-5-methoxy-1H-indol-2-yl)propanoic Acid]
- inhibition at 25 µM (mouse COX-2): ≤ 34%

SMILES: COc1ccc2c(c1)c1c(n2C(=O)c2ccc(Cl)cc2)CCC(C(=O)O)C1 (centres unmarked) [Compound 61, 9-(4-Chlorobenzoyl)-6-methoxy-2,3,4,9-tetrahydro-1H-carbazole-3-carboxylic Acid]
- IC50 (oCOX-1): 750 nM
- wt mCOX 2 plateau of inhibition (P @ %) (mouse COX-2): 61.4%

SMILES: COc1ccc2c(c1)c(CC(=O)NS(C)(=O)=O)c(C)n2C(=O)c1ccc(Cl)cc1 [Compound 14, 2-(1-(4-Chlorobenzoyl)-5-methoxy-2-methyl-1H-indol-3-yl)-N-(methylsulfonyl)acetamide]
- loss of inhibitory potency for AKR1C3 (AKR1C3): 22 fold

SMILES: COc1ccc2c(c1)c(CC(=O)NS(=O)(=O)C(F)(F)F)c(C)n2C(=O)c1ccc(Cl)cc1 [Compound 15]
- IC50 ratio AKR1C1/AKR1C3 (value in parentheses) (AKR1C1): > 135
- IC50 ratio AKR1C4/AKR1C3 (value in parentheses) (AKR1C4): > 135

SMILES: COC(=O)Cc1c(C)n(C(=O)c2ccc(OC)cc2)c2ccc(OC)cc12 [Compound 13]
- IC50 Ratio 1C2/1C3 (AKR1C2): >12

SMILES: COc1ccc2c(c1)c(CC(=O)O)cn2C(=O)c1ccc(Cl)cc1 [Compound 20, 2-(1-(4-Chlorobenzoyl)-5-methoxy-1H-indol-3-yl)acetic Acid]
- slope factor of inhibition dose–response curve (AKR1C3): 1

SMILES: COc1ccc2c(c1)c(CC(=O)NS(=O)(=O)C(F)(F)F)cn2C(=O)c1ccc(Cl)cc1 [Compound 27, 2-(1-(4-Chlorobenzoyl)-5-methoxy-1H-indol-3-yl)-N-((trifluoromethyl)sulfonyl)acetamide]
- IC50 (oCOX-1): 2190 nM

SMILES: COc1ccc2c(c1)c1c(n2C(=O)c2ccc(Cl)cc2)CC(C(=O)O)CC1 (centres unmarked) [Compound 64, 9-(4-Chlorobenzoyl)-6-methoxy-2,3,4,9-tetrahydro-1H-carbazole-2-carboxylic Acid]
- IC50 (ovine COX-1): 2400 nM
- oCOX 1 plateau of inhibition (P @ %) (ovine COX-1; plateau at higher inhibitor concentrations): 56.1%
- IC50 (mouse COX-2): 1480 nM
- wt mCOX 2 plateau of inhibition (P @ %) (mouse COX-2): 62.6%

SMILES: COc1ccc2c(c1)c(C)c(CC(C)C(=O)O)n2C(=O)c1ccc(Cl)cc1 (centres unmarked) [Compound 49, 3-(1-(4-Chlorobenzoyl)-5-methoxy-3-methyl-1H-indol-2-yl)-2-methylpropanoic Acid]
- loss of AKR1C3 potency (AKR1C3): 2 fold

SMILES: COc1ccc(C(=O)n2c(C)c(CC(=O)O)c3cc(OC)ccc32)cc1 [Compound 4]
- selectivity for AKR1C3 over AKR1C2 (AKR1C2): over 300 fold

SMILES: O=C(O)Cc1cn(C(=O)c2ccc(Cl)cc2)c2ccc(F)cc12 [Compound 25]
- increase in AKR1C2 inhibitory potency (AKR1C2; relative to des-methyl-indomethacin (20)): 4 fold

SMILES: COC(=O)Cc1cn(C(=O)c2ccc(Cl)cc2)c2ccc(OC)cc12 [Compound 21]
- IC50 Ratio 1C2/1C3 (AKR1C2): >8

SMILES: COc1ccc2c(c1)c(C)c(CCC(=O)O)n2C(=O)c1ccc(Cl)cc1 [Compound 44, 3-(1-(4-Chlorobenzoyl)-5-methoxy-3-methyl-1H-indol-2-yl)propanoic Acid]
- IC50 (oCOX-1): > 100000 nM
- inhibitory activity on COX-1 at highest concentration tested (oCOX-1): did not display significant inhibitory activity
- inhibition of testosterone formation (LNCaP-AKR1C3 cells): robust inhibition
- inhibition at 4 µM (mouse COX-2; read-out: wt mCOX 2 % inhib. @ 4 μM, 4 μM inhibitor, 5 μM AA): < 18%
- inhibition at 25 µM (mouse COX-2): ≤ 34%

SMILES: COC(=O)Cc1c(C)n(C(=O)c2ccc(Cl)cc2)c2ccc(OC)cc12 [Compound 10]
- loss of inhibitory potency for AKR1C3 (AKR1C3): 57 fold

SMILES: COc1ccc2c(c1)c(C)c(CCC(=O)NS(C)(=O)=O)n2C(=O)c1ccc(Cl)cc1 [Compound 50, 3-(1-(4-Chlorobenzoyl)-5-methoxy-3-methyl-1H-indol-2-yl)-N-(methylsulfonyl)propanamide]
- IC50 (oCOX-1): > 100000 nM
- inhibitory activity on COX-1 at highest concentration tested (oCOX-1): did not display significant inhibitory activity
- inhibition of testosterone formation (LNCaP-AKR1C3 cells): robust inhibition
- inhibition at 25 µM (ovine COX-1): ≤ 34%
- inhibition at 25 µM (mouse COX-2): ≤ 34%
- loss of AKR1C3 potency (AKR1C3): 3 fold

SMILES: COc1ccc2c(c1)c(CC(=O)O)cn2C(=O)c1ccc(F)cc1 [Compound 22]
- IC50 Ratio 1C2/1C3 (AKR1C2): >20

SMILES: COc1ccc2c(c1)c(CC(=O)O)c(C)n2C(=O)c1ccc(Cl)cc1 [Compound 1, 2-(1-(4-chlorobenzoyl)-5-methoxy-2-methyl-1H-indol-3-yl)acetic acid, reference compound]
- inhibition of testosterone formation (LNCaP-AKR1C3 cells): robust inhibition

SMILES: COc1ccc2c(c1)c(C)c(CC(C)(C)C(=O)O)n2C(=O)c1ccc(Cl)cc1 [Compound 48, 3-(1-(4-Chlorobenzoyl)-5-methoxy-3-methyl-1H-indol-2-yl)-2,2-dimethylpropanoic Acid]
- inhibition at 25 µM (ovine COX-1): ≤ 34%
- inhibition at 25 µM (mouse COX-2): ≤ 34%

SMILES: COc1ccc2c(c1)c1c(n2C(=O)c2ccc(Cl)cc2)CCC(C(=O)NS(C)(=O)=O)C1 (centres unmarked) [Compound 63, 9-(4-Chlorobenzoyl)-6-methoxy-N-(methylsulfonyl)-2,3,4,9-tetrahydro-1H-carbazole-3-carboxamide]
- selectivity for AKR1C3 over AKR1C2 (AKR1C2): 20 fold
- IC50 Ratio 1C2/1C3 (AKR1C2): > 20

SMILES: COc1ccc2c(c1)cc(C)n2C(=O)c1ccc(Cl)cc1 [Compound 19]
- loss of inhibitory potency for AKR1C3 (AKR1C3): 36 fold
